Measurements published in patent publication US20170240592A1, “GADD45BETA/MKK7 INHIBITOR FOR THE TREATMENT OF A RESISTANT HAEMATOLOGICAL MALIGNANCY” (IMPERIAL INNOVATIONS LIMITED, priority 2014, published 2017).

Test system: diffuse large B-cell lymphoma (DLBCL) cell lines
Test: PI nuclear staining assay, apoptotic cells in DLBCL cell lines
Assay type: cell-based, human
Details: 10 μM, 6 days
Description: Current treatment of diffuse large B-cell lymphoma typically involves treatment with combination therapy, such as cyclophosphamide, doxorubicin, vincristine and prednisone (CHOP), or rituximab, cyclophosphamide, doxorubicin, vincristine and prednisone (R-CHOP). With those current treatments, many patients relapse and/or develop drug resistance at some point. The potential of the Gadd45β/MKK7 inhibitor DTP3 to operate in these settings was evaluated, by determining levels of apoptosis in diffuse large B-cell lymphoma cell lines known to be resistant to current therapies (HT, SU-DHL-8, U-2932, RC-K8 and RIVA, see for example Kaneko et al, Clinical Cancer Research, 2014, 20, p 1814-1820; Naylor et al, Cancer Research, 2011, Volume 71, p 2643-2653; Lyu et al, Cancer Research, 2013, Volume 73, Issue 8, Supplement 1), following treatment of those cells with DTP3. These cells have CARD11, A20 and/or MYD88 mutations and are also known to be resistant to agents such as Bruton's tyrosine kinase inhibitors, spleen tyrosine kinase inhibitors, PI3K inhibitors and/or protein kinase C inhibitors.
The percentages of apoptotic cells are depicted.
A comparison was made between the ability of DTP3 to kill various DLBCL cell lines by apoptosis in vitro. Cell lines HT, SU-DHL-8, U-2932 and RC-K8 which are known to be sensitive to DTP3; and insensitive cell lines RI-1, NU-DUL-1, TMD8, and HBL1 were used. Cell death was assessed using a standard propidium iodide (PI) nuclear staining assay followed by flow cytometry whereby the proportion of cells with a sub G1-DNA content was measured after cells had been exposed to DTP3 for 6 days at 10 μM. As controls, further populations of cells were left untreated (UT) or were treated with a scrambled D-tripeptide (SCR) for 6 days.
Apoptosis analyses were performed using propidium iodide (PI) nuclear labelling, as described previously (Riccardi and Nicoletti, 2006). Briefly, cells were seeded at a density of 2×10^5 cells/well into wells of either 24- or 48-well plates and cultured in the presence or absence of treatment, as shown. Cells were then fixed in 70% ice-cold ethanol for 16 hr, washed in PBS, and treated with ribonuclease A (50 μg/mL) for 30 min at room temperature. Samples were finally stained with PI (50 μg/mL) in 0.1% sodium citrate buffer for 2 to 4 hr at 4° C. in the dark, and data were acquired using a FACSCalibur automated system (Becton Dickinson) and analysed with FlowJo.

CC(=O)N[C@H](Cc1ccc(O)cc1)C(=O)N[C@H](CCCNC(=N)N)C(=O)N[C@H](Cc1ccccc1)C(N)=O [DTP3, Acetyl-Tyr-Arg-Phe-NH2]
apoptosis in DLBCL cell lines resistant to conventional DLBCL treatments (HT, SU-DHL-8, U-2932, RC-K8): effective in causing apoptosis | apoptosis in sensitive DLBCL cell lines (HT, SU-DHL-8, U-2932, RC-K8): substantial increases in apoptosis | apoptosis in insensitive DLBCL cell lines (RI-1, NU-DUL-1, TMD8, HBL1): no increase in apoptosis
